What all share (test): HDAC Activity Assays
Assay [1] deals with Histone deacetylase 1/Nuclear receptor corepressor 2 [395-498] (Homo sapiens, UniProt Q13547). On the procedure: (§1) The enzyme activities were initially tested in a serial dilution of each HDAC using the HDAC-Glo I/II reagents (Promega) according to the manufacturer s protocol. Luminescence was detected using the BMG POLARstar Omega microplate reader. A concentration of each HDAC within the linear response region was used for assaying inhibition of HDAC activity by UF010 and analogs. Each compound was tested in 10-point dose-response assay in triplicate.
Chain of Histone deacetylase 1/Nuclear receptor corepressor 2 [395-498] (Q13547 whole entry): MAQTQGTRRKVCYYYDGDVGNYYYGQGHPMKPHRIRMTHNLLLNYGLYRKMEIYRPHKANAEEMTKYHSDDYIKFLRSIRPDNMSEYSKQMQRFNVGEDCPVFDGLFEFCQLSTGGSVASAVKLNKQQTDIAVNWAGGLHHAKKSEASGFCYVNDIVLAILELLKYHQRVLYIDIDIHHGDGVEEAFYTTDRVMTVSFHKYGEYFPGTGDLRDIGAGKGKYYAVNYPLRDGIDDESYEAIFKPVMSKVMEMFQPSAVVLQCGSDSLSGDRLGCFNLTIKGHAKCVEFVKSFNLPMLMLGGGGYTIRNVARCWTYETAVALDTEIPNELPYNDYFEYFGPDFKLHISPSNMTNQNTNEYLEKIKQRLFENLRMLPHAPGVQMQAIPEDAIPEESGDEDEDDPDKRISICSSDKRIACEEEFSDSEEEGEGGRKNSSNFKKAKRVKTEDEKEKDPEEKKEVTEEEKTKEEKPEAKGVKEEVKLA
Chain of Histone deacetylase 1/Nuclear receptor corepressor 2 [395-498] (Q9Y618 395-498, further chain): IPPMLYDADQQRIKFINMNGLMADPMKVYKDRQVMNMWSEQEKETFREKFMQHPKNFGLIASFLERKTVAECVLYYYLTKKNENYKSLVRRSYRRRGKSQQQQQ

The target of assay [2] is Histone deacetylase 3/Nuclear receptor corepressor 2 [395-498] (Homo sapiens, UniProt O15379). The protocol:
as §1

Assay [3] addresses Histone deacetylase 2/Nuclear receptor corepressor 2 [395-498] (Homo sapiens, UniProt Q92769). The protocol:
as §1

A further assay deals with T1, Histone deacetylase 8 (Homo sapiens, UniProt Q9BY41).
T1 sequence (Q9BY41 whole entry): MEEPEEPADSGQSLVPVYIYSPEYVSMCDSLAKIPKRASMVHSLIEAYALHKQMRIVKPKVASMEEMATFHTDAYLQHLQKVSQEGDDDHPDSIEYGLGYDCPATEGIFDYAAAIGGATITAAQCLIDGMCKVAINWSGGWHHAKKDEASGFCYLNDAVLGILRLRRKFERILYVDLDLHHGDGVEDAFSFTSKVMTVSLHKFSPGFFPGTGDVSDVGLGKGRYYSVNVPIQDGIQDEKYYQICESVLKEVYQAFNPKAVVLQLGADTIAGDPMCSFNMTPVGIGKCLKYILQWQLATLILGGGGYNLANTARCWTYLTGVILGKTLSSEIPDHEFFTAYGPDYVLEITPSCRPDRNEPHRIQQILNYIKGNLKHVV
The protocol: as §1

The target of another assay is T2, Histone deacetylase 6 (Homo sapiens, UniProt Q9UBN7).
T2 sequence (Q9UBN7 whole entry): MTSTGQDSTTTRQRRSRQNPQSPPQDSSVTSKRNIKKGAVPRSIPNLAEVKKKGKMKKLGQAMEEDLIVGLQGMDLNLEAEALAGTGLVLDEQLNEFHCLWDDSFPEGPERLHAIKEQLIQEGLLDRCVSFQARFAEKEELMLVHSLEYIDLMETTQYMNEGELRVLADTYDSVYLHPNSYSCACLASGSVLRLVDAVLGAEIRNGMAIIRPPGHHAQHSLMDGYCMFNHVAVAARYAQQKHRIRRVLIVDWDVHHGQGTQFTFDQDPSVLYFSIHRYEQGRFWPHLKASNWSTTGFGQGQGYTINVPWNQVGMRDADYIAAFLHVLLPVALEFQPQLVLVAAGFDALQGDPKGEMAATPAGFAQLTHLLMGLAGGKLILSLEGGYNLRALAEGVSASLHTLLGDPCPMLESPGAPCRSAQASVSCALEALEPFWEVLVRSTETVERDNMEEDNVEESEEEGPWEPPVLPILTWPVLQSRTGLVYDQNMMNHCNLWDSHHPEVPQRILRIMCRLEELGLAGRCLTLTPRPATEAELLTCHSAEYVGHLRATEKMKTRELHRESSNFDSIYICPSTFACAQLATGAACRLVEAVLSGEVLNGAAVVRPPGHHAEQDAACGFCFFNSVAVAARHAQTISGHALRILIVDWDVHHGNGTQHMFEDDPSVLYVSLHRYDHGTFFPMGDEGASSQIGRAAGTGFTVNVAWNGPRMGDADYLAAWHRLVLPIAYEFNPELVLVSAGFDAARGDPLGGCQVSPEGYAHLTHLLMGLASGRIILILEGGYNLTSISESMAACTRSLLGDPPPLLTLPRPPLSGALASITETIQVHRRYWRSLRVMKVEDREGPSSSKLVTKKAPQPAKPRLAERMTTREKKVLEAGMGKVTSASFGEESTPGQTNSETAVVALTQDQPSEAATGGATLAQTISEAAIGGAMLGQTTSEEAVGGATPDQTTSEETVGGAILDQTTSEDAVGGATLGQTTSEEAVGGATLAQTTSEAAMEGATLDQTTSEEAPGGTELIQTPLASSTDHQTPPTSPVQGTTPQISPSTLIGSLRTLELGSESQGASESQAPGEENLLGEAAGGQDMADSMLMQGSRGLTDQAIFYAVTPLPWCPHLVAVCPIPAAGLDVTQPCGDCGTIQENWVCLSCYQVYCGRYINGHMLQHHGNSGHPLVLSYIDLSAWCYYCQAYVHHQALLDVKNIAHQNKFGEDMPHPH
The protocol:
as §1

Structures are written as SMILES.

Chain of Histone deacetylase 3/Nuclear receptor corepressor 2 [395-498] (O15379 whole entry): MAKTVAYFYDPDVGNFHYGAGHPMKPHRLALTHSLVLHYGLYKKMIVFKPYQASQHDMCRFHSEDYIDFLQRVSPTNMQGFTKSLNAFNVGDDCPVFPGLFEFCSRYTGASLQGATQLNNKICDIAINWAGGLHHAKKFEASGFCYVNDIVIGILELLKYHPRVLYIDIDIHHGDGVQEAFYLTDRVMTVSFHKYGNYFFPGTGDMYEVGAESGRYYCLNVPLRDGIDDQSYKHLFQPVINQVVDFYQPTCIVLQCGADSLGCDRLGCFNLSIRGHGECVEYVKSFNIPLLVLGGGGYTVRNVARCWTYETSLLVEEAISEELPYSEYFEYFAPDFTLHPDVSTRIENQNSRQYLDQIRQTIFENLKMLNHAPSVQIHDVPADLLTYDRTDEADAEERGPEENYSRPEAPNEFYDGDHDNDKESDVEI
Chain of Histone deacetylase 3/Nuclear receptor corepressor 2 [395-498] (Q9Y618 395-498, further chain): as the sequence (Q9Y618 395-498, further chain) above
Chain of Histone deacetylase 2/Nuclear receptor corepressor 2 [395-498] (Q92769 whole entry): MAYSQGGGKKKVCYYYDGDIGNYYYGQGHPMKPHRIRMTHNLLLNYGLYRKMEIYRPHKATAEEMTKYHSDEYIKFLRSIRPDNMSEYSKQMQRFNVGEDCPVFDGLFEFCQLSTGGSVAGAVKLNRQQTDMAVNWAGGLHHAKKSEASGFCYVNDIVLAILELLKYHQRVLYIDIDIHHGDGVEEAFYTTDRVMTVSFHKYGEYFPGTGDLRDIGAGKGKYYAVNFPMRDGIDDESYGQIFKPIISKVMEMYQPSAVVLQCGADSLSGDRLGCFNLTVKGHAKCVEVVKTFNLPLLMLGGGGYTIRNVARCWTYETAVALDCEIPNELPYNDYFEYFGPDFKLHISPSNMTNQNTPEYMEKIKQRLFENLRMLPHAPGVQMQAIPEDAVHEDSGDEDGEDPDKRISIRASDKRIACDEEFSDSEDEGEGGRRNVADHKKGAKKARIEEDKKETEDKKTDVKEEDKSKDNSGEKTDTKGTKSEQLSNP
Chain of Histone deacetylase 2/Nuclear receptor corepressor 2 [395-498] (Q9Y618 395-498, further chain): as the sequence (Q9Y618 395-498, further chain) above

The IC50 is the concentration that gives 50% inhibition. A lower IC50 goes with inhibition by little substance. As for `CCCCNNC(=O)c1ccc(F)cc1` [SR-3203], the IC50 in assay [1] turned out to be 13.2 µM; in assay [2], 1.78 µM; in assay [3], 15.1 µM.

As to `CCCCNNC(=O)c1ccc(OC(F)(F)F)cc1` [SR-3204], the values for the IC50 in assay [1], in assay [2] and in assay [3] were 8.86 µM, 1.35 µM and 9.09 µM, respectively.

As for `CCCCNNC(=O)c1ccc(OC)cc1` [SR-3206], the IC50 in assay [1] is 1.91 µM; in assay [2] it was 0.43 µM; in assay [3], 2.52 µM.

As for `CCCCNNC(=O)c1ccc(N(C)C)cc1` [SR-3208], the IC50 in assay [1] was found to be 0.23 µM; at Histone deacetylase 8 it was 0.72 µM; in assay [2], 0.12 µM; against Histone deacetylase 6 it was 9.57 µM; in assay [3] it was 0.88 µM.

Turning to `CCCCNNC(=O)c1ccc(Cl)cc1` [SR-3210], the IC50 in assay [1] was determined as 3 µM; in assay [2], 2.5 µM; in assay [3], 3.8 µM.

For the compound `O=C(NNCCC1CCCC1)c1ccc(Br)cc1` [SR-3297], the results for the half-maximal inhibitory concentration (IC50) in assay [1], in assay [2] and in assay [3] were 7.4 µM, 1.08 µM and 7.65 µM, respectively.

Turning to `CN(C)c1ccc(C(=O)NNCC2CCCC2)cc1` [SR-3298], the IC50 in assay [1] was 1.76 µM; in assay [2], 1.67 µM; in assay [3], 3.25 µM.

As for `CCCCNNC(=O)c1ccc(C(C)(C)C)cc1` [SR-3302], the IC50 in assay [1] amounted to 0.19 µM; on Histone deacetylase 8, 0.49 µM; in assay [2], 0.07 µM; against Histone deacetylase 6, 6.83 µM; in assay [3], 1.04 µM.

Take `O=C(NNCC1CCCC1)c1ccc(Br)cc1` [SR-3364]: the results for the IC50 in assay [1], in assay [2] and in assay [3] were 8.81 µM, 6.98 µM and 28.4 µM, respectively.

Regarding `O=C(NNCCCC1CCCC1)c1ccc(Br)cc1` [SR-3365], the IC50 in assay [1], in assay [2] and in assay [3] was > 50 µM in each case.

As for `CCCCCCNNC(=O)c1ccc(Br)cc1` [SR-3367], the IC50 in assay [1] was found to be 10.3 µM; in assay [2], 20 µM; on Histone deacetylase 6, 39.1 µM; in assay [3], 16.1 µM.

`CCCCCNNC(=O)c1ccc(Br)cc1` [SR-3970]: the IC50 was determined as 1.87 µM in assay [1]; 4.87 µM at Histone deacetylase 8; 0.92 µM in assay [2]; 5.73 µM against Histone deacetylase 6; 1.92 µM in assay [3].

As for `CCCCNNC(=O)c1ccc(Br)cc1` [UF010], the values for the IC50 against Histone deacetylase 8 and at Histone deacetylase 6 were 2.83 µM and 9.09 µM, respectively.
